{"source": "patent US9782361B2", "about": "(Katholieke Universiteit Leuven, priority 2011, dated 2017)", "key": {"[1]": {"test_system": "6 Hz corneal stimulation-induced seizures in mice", "assay": "6 Hz psychomotor seizure model of partial epilepsy", "format": "in vivo, mouse", "protocol": "For assessing the anti-convulsant activity of ar-Tumerone, the 6 Hz psychomotor seizure model of partial epilepsy (Barton M. E. et al., 2001) was used, thereby applying the following stimulation parameters: 6 Hz, 0.2 ms rectangular pulse width, 3 s duration.\nEvery mouse (male NMRI+/−30 g) was administered the compound (ar-tumerone 50 mg/kg, 20 mg/kg, 1 mg/kg and 100 μg/kg) or vehicle (PEG 200:DMSO 1:1) via i.p. injection. After 30 minutes of incubation, seizures were induced via corneal stimulation using the Ugo-Basil device. Prior to the placement of corneal electrodes, a drop of 0.5% xylocaine was applied to the eyes of the animal. Animals were restrained manually and released immediately in a transparent plastic cage following the stimulation. Then, the animal was observed. The seizure was characterized by stun, forelimb clonus, twitching of vibrissae, straub-tail for at least 45 s. Protection was defined as the absence of a seizure. A minimum of six animals per dose was used. […] Negative control (only vehicle) and positive control (valproic acid 300 mg/kg) were included as well. As expected, 6 out of 6 mice treated with only vehicle were not protected and 6 out of 6 mice treated with valproic acid were protected."}, "[2]": {"test_system": "PTZ-induced seizures in mice", "assay": "Mouse PTZ-induced seizure assay (PTZ tail vein infusion)", "format": "in vivo", "description": "Mice were randomly divided into groups of five animals (vehicle (where vehicle was polyethylene glycol 200 (PEG200):water 1:1) and sample). The animals were pre-warmed under an infrared lamp for 10 minutes to dilate the tail veins. They were then placed in a restrainer and the lateral tail vein was catheterized with 1-cm long, 29-gauge needle. The needle was secured to the tail with surgical tape after confirming a correct placement. The needle was attached to a 0.7-m long polyethylene tubing connected to two 2.5-ml glass syringes containing: a) sample (control vehicle or test compounds) and b) PTZ (7.5 mg/ml ddH2O). These syringes were mounted on an infusion pump (ALADOIN-1000 11 VDC, 0.75 Å, World Precision Instruments). Thus, 100 μL of control vehicle (PEG 200: ddH2O 1:1) or test compounds (turmeric oil and ar-turmerone) were IV infused at the rate of 50 μl/min for 2 minutes. Ten minutes later, mice were released from the restrainer and placed in a transparent plastic cage for observation.\nPTZ was constantly infused at the rate of 150 μl/min. Seizure manifestation stages in mice were scored according to the time between the start of PTZ infusion and the following behavioral events: ear, tail and myoclonic twitch, forelimb clonus, falling, tonic hindlimb extension and death (28). Behavior was observed up to 5 minutes of PTZ infusion. In case of any surviving mice, they were sacrificed.\nPTZ doses were calculated according to the formula: PTZ dose [mg/kg]=(PTZ concentration [mg/ml]×infusion rate [ml/s]×infusion duration [s]×1000)/mouse weight [g]). All work solutions contained heparine (20 μl/ml).\nAll statistical analyses were performed using GraphPad Prism 5 software (GraphPad Software, Inc.). Values were presented as means±standard deviation (SD). […] For mouse experiments, significant differences between estimated time intervals prior to above-mentioned seizure stages were calculated using the unpaired Student's t-test."}, "[3]": {"test_system": "PTZ-induced seizures in zebrafish larvae", "assay": "Zebrafish PTZ seizure assay (videotracking of larval locomotor activity)", "format": "in vivo", "protocol": "Zebrafish larvae from 7-dpf were tracked using the ViewPoint VideoTrack System for Zebrafish™ (Version 2.3.1.0, ViewPoint, France). The system consists of an infrared light source, a high-resolution digital videocamera to capture larval movements within a defined time period (30 minutes in our experimental set-up) and the software to analyze larval locomotor activity (FIG. 1).\nThe highest concentration tested corresponds to the previously determined MTC. Zebrafish larvae were placed in a 96-well plate (tissue culture plate, flat bottom, FALCON®, USA); one larva per well. Each row of the plate (12 wells) comprised different treatment groups. Two adjacent rows contain the same compound but received two different treatments: a) first row, embryo medium (DMSO 1%), and b) second row, PTZ 20 mM. The first two rows of the plate (vehicle control group, where vehicle was embryo medium) contained a volume of 100 μl of embryo medium (1% DMSO) per well. The following three test groups (two rows each) contained 100 μl of different concentrations of test compound in embryo medium. The larvae thus treated were incubated at room temperature in dark and quiet conditions for 1 hour. Embryo medium (100 μl) was added to the first rows of each one of the four groups. Likewise, 100 μl of PTZ 40 mM were added to the second rows of each treatment group (final concentration of PTZ: 20 mM). Thus, the movement pattern of the exposed zebrafish larvae was video-tracked and assessed in presence of embryo medium (1% DMSO) and PTZ 20 mM. Videotracking of larval movements was started 5 minutes after addition of embryo medium or PTZ to the wells and was recorded for 30 minutes. A total of 8 wells in each plate were left without larvae (medium only) as a negative control, so that each experimental parameter consisted of an average of 10 to 12 larvae. The tracker software measured three periods of 10 minutes of larvae movement. Results were registered as the average value of the total time of larvae movement during 30 minutes. The figures shown are representative of a series of two similar experiments.\nAll statistical analyses were performed using GraphPad Prism 5 software (GraphPad Software, Inc.). Values were presented as means±standard deviation (SD). The locomotor activity of zebrafish larvae was analyzed using one-way ANOVA followed by Dunnett's multiple comparison test. Statistically significant differences (p<0.05) between a treated group and the equivalent control groups (vehicle or PTZ) were considered indicative of decrease or increase in locomotor activity of zebrafish larvae. For mouse experiments, significant differences between estimated time intervals prior to above-mentioned seizure stages were calculated using the unpaired Student's t-test."}, "[4]": {"settings": "10 μg/mL, 1 hour pre-incubation, PTZ 20 mM, 30 min tracking"}, "[5]": {"settings": "46 μM, PTZ 20 mM, 30 min tracking"}}}
{"compound": "CC(C)=CC(=O)C[C@H](C)c1ccc(C)cc1", "note": "[ar-turmerone]", "values": [{"measurement": "mice protected from seizures", "setting": "[1]; 100 μg/kg i.p., 30 minutes before stimulation, n=6", "value": "Six out of six"}, {"measurement": "mice protected from seizures", "setting": "[1]; 1 mg/kg i.p., 30 minutes before stimulation, n=6", "value": "Six out of six"}, {"measurement": "mice protected from seizures", "setting": "[1]; 20 mg/kg i.p., 30 minutes before stimulation, n=6", "value": "Six out of six"}, {"measurement": "mice protected from seizures", "setting": "[1]; 50 mg/kg i.p., 30 minutes before stimulation, n=6", "value": "Six out of six"}, {"measurement": "required dose of PTZ to trigger all assessed events", "setting": "[2]; 50 mg/kg infused, tonic hindlimb extension p<0.05, other events and death p<0.01", "value": "significant resistance to the generation of seizures"}, {"measurement": "PTZ dose for generating seizure behaviors", "setting": "[2]; 200 mg/kg, ear, tail and myoclonic twitch, tonic hind limb extension and death (p<0.05)", "value": "significant PTZ dose increase"}, {"measurement": "anticonvulsant activity (decrease of PTZ-induced seizure movements)", "setting": "[3]; [4]", "value": "Significant decrease of the seizures triggered by PTZ"}, {"measurement": "anticonvulsant activity (decrease of PTZ-induced seizure movements)", "setting": "[3]; [5]", "value": "anticonvulsant activity"}]}
{"compound": "COc1cc(/C=C/C(=O)CC(=O)/C=C/c2ccc(O)c(OC)c2)ccc1O", "note": "[curcumin, reference compound]", "values": [{"measurement": "anticonvulsant activity (decrease of PTZ-induced seizure movements)", "setting": "[3]; concentration not given", "value": "potent activity in inhibiting PTZ-induced seizures"}]}
{"compound": "CN1C(=O)CN=C(c2ccccc2)c2cc(Cl)ccc21", "note": "[diazepam, reference compound]", "values": [{"measurement": "anticonvulsant activity (decrease of PTZ-induced seizure movements)", "setting": "[3]; 1.42 μg/ml, PTZ 20 mM, 30 min tracking", "value": "decreased PTZ-induced movements"}, {"measurement": "anticonvulsant activity (decrease of PTZ-induced seizure movements)", "setting": "[3]; 14.23 μg/ml, PTZ 20 mM, 30 min tracking", "value": "decreased PTZ-induced movements"}]}
{"compound": "O=C1NC(=O)C(c2ccccc2)(c2ccccc2)N1", "note": "[phenytoin, reference compound]", "values": [{"measurement": "anticonvulsant activity (decrease of PTZ-induced seizure movements)", "setting": "[3]; 75 μg/ml, PTZ 20 mM, 30 min tracking", "value": "significant activity"}, {"measurement": "anticonvulsant activity (decrease of PTZ-induced seizure movements)", "setting": "[3]; 252.26 μg/ml, PTZ 20 mM, 30 min tracking", "value": "significant activity"}]}
{"compound": "CCCC(CCC)C(=O)[O-].[Na+]", "note": "[sodium valproate, reference compound]", "values": [{"measurement": "delay of seizure behaviors (PTZ tail infusion)", "setting": "[2]; 50 mg/kg, tonic hindlimb extension p<0.01, death p<0.05", "value": "capable of delaying tonic hindlimb extension"}, {"measurement": "anticonvulsant activity (decrease of PTZ-induced seizure movements)", "setting": "[3]; concentration not given", "value": "able to control seizures generation"}]}
{"compound": "CCCC(CCC)C(=O)O", "note": "[valproic acid, reference compound]", "values": [{"measurement": "mice protected from seizures", "setting": "[1]; 300 mg/kg, positive control", "value": "6 out of 6"}]}
{"compound": "α-atlantone", "values": [{"measurement": "anticonvulsant activity (decrease of PTZ-induced seizure movements)", "setting": "[3]; 5 μg/mL, 1 hour pre-incubation, PTZ 20 mM, 30 min tracking", "value": "Significant decrease of the seizures triggered by PTZ"}, {"measurement": "anticonvulsant activity (decrease of PTZ-induced seizure movements)", "setting": "[3]; [4]", "value": "Significant decrease of the seizures triggered by PTZ"}, {"measurement": "anticonvulsant activity (decrease of PTZ-induced seizure movements)", "setting": "[3]; 23 μM, PTZ 20 mM, 30 min tracking", "value": "anticonvulsant activity"}, {"measurement": "anticonvulsant activity (decrease of PTZ-induced seizure movements)", "setting": "[3]; [5]", "value": "anticonvulsant activity"}]}
